Where two headings read alike, the source gives them in different places.
Columns and labels:
[1] = test system: NS5A chimeric genotype 2a JFH-1 replicon with genotype 2b MD2b-1 strain NS5A gene (M31 present); test: Replicon assay, genotype 2b NS5A chimera; type: cell-based, HCV; details: Hepatitis C virus
Outline: (§1)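 Cells carrying the stable or transiently transfected (Huh-Lunet) dicistronic RLuc replicons received 3-fold serial compound dilutions from 10 mM DMSO stocks. After 72 h, cells were lysed and Renilla luciferase read. DMSO served as the no-inhibition control and ITMN-191 above 100×EC50 as the positive control; EC50 by non-linear regression.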

[2] = IV and PO single dose pharmacokinetic studies in SD rats; type: in vivo, male Sprague-Dawley (SD) rats; details: Sprague-Dawley, rat, plasma, male SD rats, PO 2 mg/kg vs IV infusion 1 mg/kg, read-out: Rat % F
Experimental: IV and PO Single Dose Pharmacokinetic Studies in SD Rats:
The pharmacokinetics of selected compounds was characterized in male Sprague-Dawley (SD) rats (250-300g). In this study, two groups of naïve purebred SD rats (N=3 per group, fasted over night) received the selected compound either as an intravenous (IV) infusion (1 mg/kg over 30 minutes) via the jugular vein or by oral gavage (2 mg/kg). The intravenous (IV) dosing vehicle was 5% ethanol, 35% polyethylene glycol 400 (PEG 400) and 60% water pH 2.0. The oral dosing vehicle was 5% ethanol, 55% PEG 400 and 40% citrate buffer pH 2.2.
Serial blood samples (approximately 0.3 mL each) were collected from jugular vein or other suitable vein at specified time points. For the IV infusion group, the blood samples were collected predose and at 0.25, 0.48, 0.58, 0.75, 1.5, 3, 6, 8, 12 and 24 hours after the start of infusion. For the oral group, the blood samples were collected predose and at 0.25, 0.50, 1, 2, 4, 6, 8, 12 and 24 hours after dosing. The blood samples were collected into VacutainerγM tubes containing EDTA-K3 as the anti-coagulant and were centrifuged at approximately 4° C. to obtain plasma. The plasma samples were stored at −20° C. until analysis by LC/MS/MS.
A bioanalytical method utilizing high performance liquid chromatography coupled to tandem mass spectrometry (LC/MS/MS) was developed for analysis of the selected compound in rat plasma. Detection was performed using selected reaction monitoring (SRM); Ions representing the precursor (M+H)^+ species was selected in quadrupole 1 (Q1) and collided with argon gas in the collision cell (Q2) to generate specific product ion, which was subsequently monitored by quadrupole 3 (Q3). Standard curve and quality control samples were prepared in male rat plasma and processed in the same way as the test samples to generate quantitative data.
Pharmacokinetic parameters were generated using non-compartmental pharmacokinetic analysis (Phoenix WinNonlin, version 6.3). Values below the lower limit of quantification (LLOQ) were assigned a value of zero if predose and treated as missing thereafter. Area under the curve (AUC) was calculated using the linear trapezoidal rule. The oral bioavailability (% F) was determined by comparison of the area under the curve (AUC) of the compound and/or a metabolite generated in plasma following oral administration to that generated following intravenous administration.

[3] = test system: NS5A chimeric genotype 1b Con1 replicon with genotype 3a S52 strain NS5A gene; test: Replicon assay, genotype 3a NS5A chimera; type: cell-based, HCV; details: Hepatitis C virus
[4] = test system: NS5A chimeric genotype 1b Con1 replicon with genotype 4a ED43 strain NS5A gene; test: Replicon assay, genotype 4a NS5A chimera; type: cell-based, HCV; details: Hepatitis C virus
[5] = test system: Q30R in genotype 1a NS5A (1a Pi-Rluc replicon, Huh-7-derived cured-51 cells); test: Replicon assay against resistance mutant 1a Q30R; type: cell-based, HCV; details: Hepatitis C virus
Outline: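 Q30R introduced by site-directed mutagenesis into the 1a Pi-RLuc replicon; replicon RNA transiently transfected into cured-51 cells. Cells treated with 3-fold serially diluted compound for 72 h, then lysed and Renilla luciferase measured; EC50 by non-linear regression.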

[6] = test system: stable HCV 1b RLuc replicon cells (dicistronic genotype 1b Con1 replicon); test: Renilla luciferase HCV replicon reporter assay, genotype 1b; type: cell-based; details: Hepatitis C virus, 72 h, stable 1b Con1 RLuc replicon cells, 72 hours; read-out: 1b
Outline: as §1

[7] = test system: stable HCV 1a RLuc replicon cells (dicistronic genotype 1a H77 replicon); test: Renilla luciferase HCV replicon reporter assay, genotype 1a; type: cell-based; details: Hepatitis C virus, 72 h, stable 1a H77 RLuc replicon cells
Outline: as §1

[8] = test system: stable HCV 2a JFH-1 Rluc replicon cells (L31 present in NS5A); test: Renilla luciferase HCV replicon reporter assay, genotype 2a JFH-1; type: cell-based; details: Hepatitis C virus
Outline: as §1

[9] = test system: NS5A chimeric genotype 2a JFH-1 replicon with genotype 2a J6 strain NS5A gene (M31 present); test: Replicon assay, genotype 2a J6 NS5A chimera; type: cell-based, HCV; details: Hepatitis C virus
Outline: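 First, 3-fold serial dilutions of compound went onto replicon cells, DMSO serving as no-inhibition control and ITMN-191 at >100×EC50 as positive control. Next came 72 h incubation, lysis and Renilla luciferase measurement. Finally, EC50 was calculated by non-linear regression; replicons covered genotypes 1a H77, 1b Con1, 2a JFH-1 (L31) and J6-NS5A chimera (M31).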

[10] = 2BS, read-out: 2b (s), stably replicating replicon cells (s), activity range
[11] = read-out: 2b (s) (nM), genotype 2b MD2b-1 NS5A chimeric replicon (M31), stably replicating replicon cells (s)
[12] = read-out: 2b (t) (nM), genotype 2b MD2b-1 NS5A chimeric replicon (M31), transiently transfected (t)
[13] = read-out: 3a (s) (nM), genotype 3a NS5A chimeric replicon, stable replicon cells (s)
[14] = read-out: 3a (s), (s), activity range
[15] = read-out: 4a (s) (nM), genotype 4a NS5A chimeric replicon, stable replicon cells (s)
[16] = read-out: 4a (s), (s), activity range
[17] = read-out: 2a JFH (nM), genotype 2a JFH-1 replicon (L31 in NS5A), stable cells
[18] = read-out: 2a JFH, stable 2a JFH-1 Rluc replicon cells, L31 in NS5A, activity range
[19] = read-out: 2b (t), transiently transfected (t) into Huh-Lunet cells, activity range
[20] = read-out: 2a J6 (t) (nM), genotype 2a J6 NS5A chimeric replicon (M31), transiently transfected (t) into Huh-Lunet cells
[21] = read-out: 2a J6 (t), transiently transfected (t) into Huh-Lunet cells, activity range

Structure (SMILES)	EC50 [1, 10]	EC50 [1, 11]	EC50 [1, 12]	bioavailability [2]	EC50 [3, 13]	EC50 [3, 14]	EC50 [4, 15]	EC50 [4, 16]	EC50 ([5]; read-out: 1a Q30R)	EC50 [6]	EC50 [7]	EC50 ([7]; activity range)	EC50 [8, 17]	EC50 [8, 18]	EC50 [1, 19]	EC50 ([5]; read-out: 1a Q30R (nM))	EC50 [9, 20]	EC50 [9, 21]	EC50 ([9]; read-out: 2a J6 (s) (nM), genotype 2a J6 NS5A chimeric replicon (M31), stably replicating replicon cells (s))	EC50 ([9]; read-out: 2a J6 (s), stably replicating replicon cells (s), activity range)
CC[C@H](C)[C@H](NC(=O)OC)C(=O)N1[C@H](c2ncc(-c3ccc4c(c3)COc3cc5c(ccc6nc([C@@H]7CC[C@H](C)N7C(=O)[C@@H](NC(=O)OC)C7CCOCC7)[nH]c65)cc3-4)[nH]2)C[C@@H]2CCC[C@@H]21 [IL]	0.1 to 0.999 nM	0.143 nM	0.025 nM	40.9%	0.083 nM	< 0.1 nM	0.04 nM	< 0.1 nM	< 0.1 nM	34 pM	28 pM	< 100 pM	0.019 nM	< 0.1 nM						
CC[C@H]1CC[C@@H](c2ncc(-c3ccc4c(c3)COc3cc5c(ccc6nc([C@@H]7CC[C@H](C)N7C(=O)[C@@H](NC(=O)OC)C7CCOCC7)[nH]c65)cc3-4)[nH]2)N1C(=O)[C@@H](NC(=O)OC)C(C)C [EN, methyl[(1 S)-2-[(2S,5S)-2-(9-{2-[(2S,5S)-5-ethyl-1-{(2S)-2 [(methoxycarbonyl)amino]-3-methylbutanoyl}pyrrolidin-2-yl]-1H-imidazol-5-yl}-1,11 dihydroisochromeno[4′,3′:6,7]naphtho[1,2-d]imidazol-2-yl)-5-methylpyrrolidin-1-yl]-2-oxo-1(tetrahydro-2H-pyran-4-yl)ethyl]carbamate]	< 0.1 nM	0.095 nM	0.052 nM	29.9%	0.061 nM	< 0.1 nM			< 0.1 nM	34 pM	18 pM	< 100 pM	0.015 nM	< 0.1 nM	< 0.1 nM	0.043 nM				
COC(=O)N[C@H](C(=O)N1[C@@H](C)CC[C@H]1c1ncc(-c2ccc3c(c2)COc2cc4c(ccc5nc([C@@H]6C[C@H](COC(F)F)CN6C(=O)[C@@H](NC(=O)OC)[C@@H](C)OC)[nH]c54)cc2-3)[nH]1)C(C)C [FO]	0.1 to 0.999 nM	0.164 nM		17.2%	0.055 nM	< 0.1 nM	0.007 nM	< 0.1 nM	0.1 to 0.999 nM	9 pM	10 pM	< 100 pM	0.008 nM	< 0.1 nM		0.112 nM				
CC[C@H](C)[C@H](NC(=O)OC)C(=O)N1[C@@H](C)CC[C@H]1c1nc2ccc3cc4c(cc3c2[nH]1)OCc1cc(-c2cnc([C@@H]3CC[C@H](C)N3C(=O)[C@@H](NC(=O)OC)C3CCOCC3)[nH]2)ccc1-4 [FQ, Methyl [(1 S)-2-[(2S,5S)-2-(5-{2-[(2S,5S)-1-{(2S,3S)-2-[(methoxycarbonyl)amino]-3-methylpentanoyl}-5-methylpyrrolidin-2-yl]-1,11-dihydroisochromeno[4′,3′:6,7]naphtho[1,2-d]imidazol-9-yl}-1H-imidazol-2-yl)-5-methylpyrrolidin-1-yl]-2-oxo-1-(tetrahydro-2H-pyran-4-yl)ethyl]carbamate]	< 0.1 nM	0.066 nM		17.7%	0.02 nM	< 0.1 nM			< 0.1 nM	19 pM	12 pM	< 100 pM	0.01 nM	< 0.1 nM		0.097 nM				
COC(=O)N[C@H](C(=O)N1C[C@@H](C)C[C@H]1c1nc2ccc3cc4c(cc3c2[nH]1)OCc1cc(-c2cnc([C@@H]3CC[C@H](C)N3C(=O)[C@@H](NC(=O)OC)[C@@H](C)OC)[nH]2)ccc1-4)[C@@H](C)OC [DY, Methyl [(2S,3R)-3-methoxy-1-{(2S,5S)-2-[9-(2-{(2S,5S)-1-[N-(methoxycarbonyl)-O-methyl-L-threonyl]-5-methylpyrrolidin-2-yl}-1H-imidazol-5-yl)-1,11-dihydroisochromeno[4′,3′:6,7]naphtho[1,2-d]imidazol-2-yl]-4-methylpyrrolidin-1-yl}-1-oxobutan-2-yl]carbamate]	0.1 to 0.999 nM	0.199 nM	0.083 nM	8.3%	0.13 nM	0.1 to 0.999 nM	0.035 nM	< 0.1 nM		65 pM	44 pM	< 100 pM	0.028 nM	< 0.1 nM	< 0.1 nM		0.047 nM	< 0.1 nM		
CC[C@H]1CC[C@@H](c2nc3ccc4cc5c(cc4c3[nH]2)OCc2cc(-c3cnc([C@@H]4C[C@@H]6CCC[C@@H]6N4C(=O)[C@@H](NC(=O)OC)C(C)C)[nH]3)ccc2-5)N1C(=O)[C@@H](NC(=O)OC)C1CCOCC1 [IU]	0.1 to 0.999 nM	0.119 nM		26.5%	0.098 nM	< 0.1 nM	0.004 nM	< 0.1 nM		22 pM	16 pM	< 100 pM	0.02 nM	< 0.1 nM					0.028 nM	< 0.1 nM
CC[C@H](C)[C@H](NC(=O)OC)C(=O)N1[C@@H](C)CC[C@H]1c1ncc(-c2ccc3c(c2)COc2cc4c(ccc5nc([C@@H]6C[C@@H]7CCC[C@@H]7N6C(=O)[C@@H](NC(=O)OC)C6CCOCC6)[nH]c54)cc2-3)[nH]1 [IP]	< 0.1 nM	0.074 nM		18.9%	0.067 nM	< 0.1 nM	0.027 nM	< 0.1 nM		29 pM	25 pM	< 100 pM	0.033 nM	< 0.1 nM			0.041 nM	< 0.1 nM		
